Reference: PubChem BioAssay (NCI)
Values joined by “and” are separate entries in the source; they are usually repeats but may differ in a detail not shown here. Equal entries are not always repeated.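 Results reflect a 48-hour exposure of cells in 96-well plates to compound at five concentrations. GI50 is the concentration that inhibits growth by half. TGI: concentration producing complete growth inhibition.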

Experiments:
Assay in all cases: growth of human tumour cells (NCI), 48 h
SN12C renal = test system: SN12C renal
MOLT-4 leukemia = test system: MOLT-4 leukemia
HCC-2998 colon = test system: HCC-2998 colon
SF-268 CNS = test system: SF-268 CNS
SW-620 colon = test system: SW-620 colon
RXF 393 renal = test system: RXF 393 renal
HOP-92 NSCLC = test system: HOP-92 NSCLC
UACC-257 melanoma = test system: UACC-257 melanoma
NCI-H226 lung = test system: NCI-H226 lung
M14 melanoma = test system: M14 melanoma

Row | SMILES | TGI (SN12C renal) [µM] | TGI (MOLT-4 leukemia) [µM] | TGI (HCC-2998 colon) [µM] | TGI (SF-268 CNS) [µM] | TGI (SW-620 colon) [µM] | TGI (RXF 393 renal) | TGI (HOP-92 NSCLC) [µM] | TGI (UACC-257 melanoma) [µM] | TGI (NCI-H226 lung) [µM] | TGI (M14 melanoma) [µM] | GI50 (SN12C renal) [µM] | GI50 (MOLT-4 leukemia) | GI50 (HCC-2998 colon) | GI50 (SF-268 CNS) | GI50 (SW-620 colon) | GI50 (RXF 393 renal) | GI50 (HOP-92 NSCLC) | GI50 (UACC-257 melanoma) [µM] | GI50 (NCI-H226 lung) [µM] | GI50 (M14 melanoma) [µM]
1 | COc1ccccc1NC(=O)C1=C(C)NC(C)=C(C(=O)Nc2ccccc2OC)C1c1ccco1 | 89.9 | 52.7 | 40.7 | > 97.3 | > 100 | 10.6 µM | 24.2 | 43.4 | 33.1 | 31.9 | – | – | – | – | – | – | – | – | – | –
2 | COc1ccc2c(c1)C(=O)c1c-2c(OCCN(C)C)nc2cc(OC)c(OC)cc12 | > 100 | > 100 | 49.9 | 16.3 | 16.9 | 18.6 µM | 19.6 | > 100 | 22.1 | 61.6 | 2.72 | 0.197 µM | 8.85 µM | 0.731 µM | 0.476 µM | 4.48 µM | 3.22 µM | > 100 | 2.95 | 18.5
3 | CCn1c(-c2nonc2N)nc2cnc(Oc3cccc(NC(=O)c4ccc(N(C)C)cc4)c3)cc21 | > 25 | > 25 | > 25 | > 25 | > 25 | > 25 µM | > 25 | > 25 | > 25 | > 25 | > 25 | 13.6 µM | > 25 µM | 2.48 µM | > 25 µM | 16.9 µM | 0.00447 µM | > 25 | > 25 | > 25
4 | COc1cc(NC2CCCCC2O)c2nc(-c3ccc(Cl)cc3)ccc2c1 (configuration not stated) | 53.1 | 46.6 | > 100 | > 100 | 46.7 | 4.58 µM | 88.3 | > 100 | > 100 | 33.9 | 9.96 | 3 µM | 13.4 µM | 9.68 µM | 7.52 µM | 2.78 µM | 18.7 µM | 12.2 | 18.6 | 9.23
5 | COc1cc2c(c(OC)c1OC)C(=O)NCCC2 | > 100 | > 100 | > 100 | > 100 | > 100 | > 100 µM | > 100 | > 100 | > 100 | > 100 | – | – | – | – | – | – | – | – | – | –
6 | COc1cc(-c2nn(-c3cccc(NC(=O)CCN4CCN(c5ccccc5)CC4)c3)cc2-c2ccncc2)ccc1Cl | > 100 | > 100 | > 100 | > 100 | > 100 | 5.18 µM | 19.5 | 95.5 | > 100 | 7.01 | 3.72 | 2.89 µM | 3.56 µM | 3.56 µM | 4.09 µM | 1.91 µM | 2.92 µM | 5.29 | 4.13 | 2.31
7 | CC(=O)OCC1OC(n2c3c(cc(C#N)c2=S)CCCC3)C(OC(C)=O)C(OC(C)=O)C1OC(C)=O (configuration not stated) | > 100 | > 100 | > 100 | > 100 | > 100 | > 100 µM and 63.7 µM | > 100 | > 100 | > 100 | > 100 | – | 31.9 µM and > 100 µM | 41.3 µM and > 100 µM | > 100 µM and 22.9 µM | 44.6 µM and > 100 µM | > 100 µM and 20.4 µM | > 100 µM and 32.4 µM | – | – | –
8 | C1=CC2CCC1CN2CCC1CNc2ccccc21 (configuration not stated) | > 100 | > 100 | > 100 | > 100 | > 100 | > 100 µM | > 100 | > 100 | > 100 | > 100 | – | – | – | – | – | – | – | – | – | –
9 | C[C@@H]1CCc2ncc(F)cc2[C@H]2CCCN2c2ccn3ncc(c3n2)C(=O)N1 | > 100 | > 100 | > 100 | > 100 | > 100 | 61 µM | > 100 | > 100 | > 100 | > 100 | 44.1 | 36.1 µM | > 100 µM | > 100 µM | > 100 µM | 16.7 µM | 47.8 µM | > 100 | 28.3 | > 100
10 | C[As](C)SC1OCC(O)C(O)C1O (configuration not stated) | 0.868 | 0.395 | 0.466 | 2.88 | 1.59 | 3.39 µM | 2.07 | 7.22 | 2.19 | 0.925 | 0.226 | 0.0825 µM | 0.224 µM | 0.492 µM | 0.217 µM | 0.321 µM | 0.283 µM | 1.43 | 0.68 | 0.128
11 | COc1ccc(/C=C/C(=O)c2cc3c(N)c(C(=O)Nc4ccc(OC)cc4)sc3nc2C)cc1 | > 50 | > 50 | – | > 50 | > 50 | – | > 50 | > 50 | – | – | 0.284 | 0.697 µM | 0.174 µM | 2.02 µM | 0.543 µM | 0.124 µM | 0.757 µM | > 23.4 | 0.0872 | 0.19
12 | CCCCC1(C(NC(=O)c2ccccc2Cl)c2ccncc2)C(=O)N(c2ccccc2)N(c2ccccc2)C1=O (configuration not stated) | > 100 | 50.3 | > 100 | > 100 | > 100 | > 100 µM | > 100 | > 100 | > 100 | > 100 | – | – | – | – | – | – | – | – | – | –
13 | COc1cc(-c2nn(-c3cccc(NC(=O)CCNc4ccc(N5CCOCC5)cc4)c3)cc2-c2ccncc2)ccc1Cl | > 100 | 6.98 | > 100 | > 100 | > 100 | 8.08 µM | 8.01 | 8.72 | 27.8 | 10.5 | 3.19 | 1.6 µM | 4.77 µM | 4.42 µM | 3.55 µM | 2.05 µM | 2.37 µM | 2.38 | 2.89 | 2.58
14 | O=c1[nH]cnc2n[nH]nc12 | > 100 | 98.4 | > 74.7 | > 94.3 | > 100 | 14.4 µM | > 100 | > 100 | > 66.1 | 30.8 | – | – | – | – | – | – | – | – | – | –
15 | COc1ccccc1C(=O)N(Cc1ccccc1)c1ccc(Cl)c(C(=O)OC(C)C)c1 | > 100 | 66.3 | > 100 | > 100 | > 100 | 62.1 µM | > 45.5 | > 88.7 | 58 | > 100 | – | – | – | – | – | – | – | – | – | –
16 | Cc1ccc(OC(=O)N2C/C(=C\c3ccccc3)C(=O)/C(=C/c3ccccc3)C2)cc1 | 58.3 | 18.5 | > 37 | 98.5 | 35.6 | 37.5 µM | > 100 | 69.5 | > 100 | 21.6 | – | – | – | – | – | – | – | – | – | –
17 | CNC(=O)OCc1nc(SC)n(C)c1COC(=O)NC | 309 | 142 | 307 | 450 | 685 | 169 µM | 376 | 335 | 400 | 347 | – | – | – | – | – | – | – | – | – | –
18 | Cc1ccc(S(=O)C(C)C(Cl)c2ccccc2)cc1 (configuration not stated) | > 100 | > 100 | > 100 | > 100 | > 100 | > 100 µM | > 100 | > 100 | > 100 | > 100 | – | – | – | – | – | – | – | – | – | –
19 | COc1ccc(/C=N/NS(=O)(=O)c2ccccc2)cc1 | > 100 | > 100 | > 100 | > 100 | > 100 | > 100 µM | > 100 | > 100 | > 100 | > 100 | – | – | – | – | – | – | – | – | – | –
20 | CC1(C)N=C(N)N=C(N)N1c1cccc(CCc2ccccc2)c1 | > 100 | > 89.2 | > 38.7 | 57.5 | > 100 | > 100 µM | 34.4 | 32.5 | > 100 | > 100 | 0.456 | 0.599 µM | 1.69 µM | 0.34 µM | 0.156 µM | 3.82 µM | 2.65 µM | 0.533 | 3.42 | 1.29
21 | CC(O)[C@H](NC(=O)N[C@@H](CC(N)=O)c1nc(N2CCNCC2)no1)C(=O)O (some centres not stated) | > 100 | > 100 | > 100 | > 100 | > 100 | > 100 µM | > 100 | > 100 | > 100 | > 100 | > 100 | > 100 µM | > 100 µM | > 100 µM | > 100 µM | > 100 µM | > 100 µM | > 100 | > 100 | > 100
